Literature values in PubChem BioAssay AID1259409 (Chemical Carcinogenesis Research Information System (CCRIS), 2018).

System: rodent chemically induced tumor inhibition, incidence and multiplicity
Experiment: CCRIS tumor inhibitor studies
Details: Dose [Inhibitor]: 0, Dose [Inhibitor]: 0; for outcome: Carcinogen: DIETHYLNITROSAMINE [55-18-5], 0.005, 0.5, 500 PPM FOR 11 OR 43 WKS BEGINNING 1 WK AFTER CARCINOGEN (STUDY DURATION: 45 WKS), Route [Inhibitor]: DIET, Strain/Sex: F344/MALE, Dose [Carcinogen]: 100 MG/KG BW TWICE AT 1 WK INTERVALS (STUDY DURATION: 45 WKS); for tumour outcome (control, treated, inhibition, significance): Promoter: NONE USED

| SMILES | outcome (Species: RAT, Target Tissue: Type of Lesion: LIVER: HEPATOCELLULAR ADENOMA) | outcome (Species: RAT, Target Tissue: Type of Lesion: LIVER: HEPATOCELLULAR CARCINOMA) | tumour outcome (control, treated, inhibition, significance) (7.5 MG 2/WK FOR 14 WK BEGINNING SIMULTANEOUSLY WITH CARCINOGEN TREATMENT (STUDY DURATION: 1 YR), Route [Inhibitor]: GAVAGE, Species: RAT, Strain/Sex: WISTAR/MALE, Target Tissue: Type of Lesion: LIVER: BENIGN TUMORS, Dose [Carcinogen]: 50 UG 2/WK FOR WK 1-4 OF STUDY THEN 75 UG 2/WK FOR WK 5-8) | tumour outcome (control, treated, inhibition, significance) (7.5 MG 2/WK FOR 14 WK BEGINNING SIMULTANEOUSLY WITH CARCINOGEN TREATMENT (STUDY DURATION: 1 YR), Route [Inhibitor]: GAVAGE, Species: RAT, Strain/Sex: WISTAR/MALE, Target Tissue: Type of Lesion: LIVER: CARCINOMA, Dose [Carcinogen]: 50 UG 2/WK FOR WK 1-4 OF STUDY THEN 75 UG 2/WK FOR WK 5-8) | tumour outcome (control, treated, inhibition, significance) (Carcinogen: DIETHYLNITROSAMINE, 55-18-5, 0.5 MG/G IN DIET FOR 3 WK BEGINNING AT 25 WK OF AGE (STUDY DURATION: 52 WK), Route [Inhibitor]: ORAL, Species: MOUSE, Strain/Sex: B6C3F1/MALE, Target Tissue: Type of Lesion: LIVER: TUMOR, Dose [Carcinogen]: 0.2 MICROMOLAR/G BW ONCE AT 6 WK OF AGE) | tumour outcome (control, treated, inhibition, significance) (Carcinogen: DIETHYLNITROSAMINE, 55-18-5, 0.5 MG/G IN DIET FOR 3 WK POST CARCINOGEN DOSE (STUDY DURATION: 52 WK), Route [Inhibitor]: ORAL, Species: MOUSE, Strain/Sex: B6C3F1/MALE, Target Tissue: Type of Lesion: LIVER: TUMOR, Dose [Carcinogen]: 0.2 MICROMOLAR/G BW ONCE AT 6 WK OF AGE) | tumour outcome (control, treated, inhibition, significance) (Carcinogen: DIETHYLNITROSAMINE, 55-18-5, 0.5 MG/G IN DIET FOR 27 WK BEGINNING AT 25 WK OF AGE (STUDY DURATION: 52 WK), Route [Inhibitor]: ORAL, Species: MOUSE, Strain/Sex: B6C3F1/MALE, Target Tissue: Type of Lesion: LIVER: TUMOR, Dose [Carcinogen]: 0.2 MICROMOLAR/G BW ONCE) | tumour outcome (control, treated, inhibition, significance) (Carcinogen: DIETHYLNITROSAMINE, 55-18-5, 0.5 MG/G IN DIET FOR DURATION OF STUDY (STUDY DURATION: 52 WK), Route [Inhibitor]: ORAL, Species: MOUSE, Strain/Sex: B6C3F1/MALE, Target Tissue: Type of Lesion: LIVER: TUMOR, Dose [Carcinogen]: 0.2 MICROMOLAR/G BW ONCE AT 6 WK OF AGE) | tumour outcome (control, treated, inhibition, significance) (Carcinogen: N-BUTYL-N-(4-HYDROXYBUTYL)NITROSAMINE, 3817-11-6, 50 MG/KG 2/WK FOR 11 WK BEGINNING POST CARCINOGEN TREATMENT (STUDY DURATION:21WK), Route [Inhibitor]: ORAL, Species: RAT, Strain/Sex: WISTAR/MALE, Target Tissue: Type of Lesion: URINARY BLADDER: CARCINOMA, Dose [Carcinogen]: 0.05% IN DRINKING WATER FOR 10 WK) | tumour outcome (control, treated, inhibition, significance) (Carcinogen: N-BUTYL-N-(4-HYDROXYBUTYL)NITROSAMINE, 3817-11-6, 50 MG/KG 2/WK FOR 13 WK BEGINNING POST CARCINOGEN TREATMENT (STUDY DURATION: 20 WK), Route [Inhibitor]: ORAL, Species: RAT, Strain/Sex: WISTAR/MALE, Target Tissue: Type of Lesion: URINARY BLADDER: CARCINOMA, Dose [Carcinogen]: 0.05% IN DRINKING WATER FOR 7 WK) | tumour outcome (control, treated, inhibition, significance) (Carcinogen: N-BUTYL-N-(4-HYDROXYBUTYL)NITROSAMINE, 3817-11-6, 200 MG/KG 2/WK FOR 13 WK BEGINNING POST CARCINOGEN TREATMENT (STUDY DURATION:20 WK), Route [Inhibitor]: ORAL, Species: RAT, Strain/Sex: WISTAR/MALE, Target Tissue: Type of Lesion: URINARY BLADDER: CARCINOMA, Dose [Carcinogen]: 0.05% IN DRINKING WATER FOR 7 WK) | tumour outcome (control, treated, inhibition, significance) (Carcinogen: N-NUTYL-N-(4-HYDROXYBUTYL)NITROSAMINE, 3817-11-6, 100 MG/KG 2/WK FOR 13 WK BEGINNING POIST CARCINOGEN TREATMENT (STUDY DURATION: 20 WK), Route [Inhibitor]: ORAL, Species: RAT, Strain/Sex: WISTAR/MALE, Target Tissue: Type of Lesion: URINARY BLADDER: CARCINOMA, Dose [Carcinogen]: 0.05% IN DRINKING WATER FOR 7 WK) |
| --- | --- | --- | --- | --- | --- | --- | --- | --- | --- | --- | --- | --- |
| Clc1ccc(C(c2ccc(Cl)cc2)C(Cl)(Cl)Cl)cc1 | 55%; 65%, -18%; 50%, 9%; 100%, -82% | 60%; 30%, 50%; 65%, -8%; 100%, -67% | 22/25 (88%), 9/21 (43%), 51%, p<0.001 | 14/25 (56%), 7/21 (33%), 41%, p<0.07 |  |  |  |  |  |  |  |  |
| CC(C)C(=O)Nc1ccc([N+](=O)[O-])c(C(F)(F)F)c1 |  |  |  |  | 81%, 50%, 38%, p<0.05 | 81%, 63%, 22%, not significant | 81%, 53%, 35%, p<0.05 | 81%, 97%, -20%, p<0.05 | 15/17 (88%), 12/16, 75%, 15%, not significant | 25/39 (64%), 10/21 (48%), 25%, not significant | 25/39 (64%), 5/17 (29%), 55%, p<0.05 | 25/39 (64%), 7/17 (41%), 36%, not significant |
